Assay results published in patent publication US7838554B2, “Dihydroxyl compounds and compositions for cholesterol management and related uses” (Esperion Therapeutics, Inc., priority 2003, dated 2010).

Key:
[1] = tested on: obese female Zucker rats; experiment: Oral daily treatment of chow fed obese female Zucker rats for fourteen days: serum lipids, glycemic indicators, body weight; format: in vivo, rat; conditions: 14 days, n=4
Protocol: In a number of different experiments, illustrative compounds of the invention are administered daily at a dose of up to 100 mg/kg to chow fed obese female Zucker rats for fourteen days in the morning by oral gavage in 1.5% carboxymethylcellulose/0.2% Tween 20 or 20% ethanol/80% polyethylene glycol (dosing vehicles). Animals are weighed daily. Animals are allowed free access to rodent chow and water throughout the study except on days of blood sampling where food is restricted for six hours prior to blood sampling. Blood glucose is determined after the 6 hour fast in the afternoon without anesthesia from a tail vein. Serum is also prepared from pretreatment blood samples subsequently obtained from the orbital venous plexus (with O2/CO2 anesthesia) and following the fourteenth dose at sacrifice from the heart following O2/CO2 anesthesia. Serums are assayed for lipoprotein cholesterol profiles, triglycerides, total cholesterol, Non-HDL cholesterol, HDL cholesterol, the ratio of HDL cholesterol to that of Non-HDL cholesterol, insulin, non-esterified fatty acids, and beta-hydroxy butyric acid. The percent body weight gain and the ratio of liver to body weight is also determined. These are shown as absolute values or as a percent change of the pretreatment values in Table 1

[2] = tested on: primary rat hepatocytes; experiment: Inhibition of lipid synthesis ([1-14C]-acetate incorporation) in primary cultures of rat hepatocytes; format: cell-based; conditions: Hepatocyte, 4 hours, 0-300 μM
Protocol: Compounds were tested for inhibition of lipid synthesis in primary cultures of rat hepatocytes. Male Sprague-Dawley rats were anesthetized with intraperitoneal injection of sodium pentobarbital (80 mg/kg). Rat hepatocytes were isolated essentially as described by the method of Seglen (Seglen, P. O. Hepatocyte suspensions and cultures as tools in experimental carcinogenesis. J. Toxicol. Environ. Health 1979, 5, 551-560). Hepatocytes were suspended in Dulbecco's Modified Eagles Medium containing 25 mM D-glucose, 14 mM HEPES, 5 mM L-glutamine, 5 mM leucine, 5 mM alanine, 10 mM lactate, 1 mM pyruvate, 0.2% bovine serum albumin, 17.4 mM non-essential amino acids, 20% fetal bovine serum, 100 nM insulin and 20 μg/mL gentamycin) and plated at a density of 1.5×10^5 cells/cm^2 on collagen-coated 96-well plates. Four hours after plating, media was replaced with the same media without serum. […] Lipid synthesis incubation conditions were initially assessed to ensure the linearity of [1-^14C])-acetate incorporation into hepatocyte lipids for up to 4 hours. Hepatocyte lipid synthesis inhibitory activity was assessed during incubations in the presence of 0.25 μCi [1-^14C]-acetate/well (final radiospecific activity in assay is 1 Ci/mol) and 0, 1, 3, 10, 30, 100 or 300 μM of compounds for 4 hours. […] Lipid radioactivity was assessed by scintillation spectroscopy in a Packard TopCount NXT.

[3] = Solubility noted on work-up of the tetraol; format: physicochemical
Excerpt: THP-protected bromo alcohol XA was converted into the corresponding Grignard reagent XB following the standard procedure (Vogel, A. I. “Vogel's Textbook of Practical Organic Chemistry”, 5th Edition, Longman, England, 1989, p. 535). Further coupling of this Grignard reagent in situ with succinic dialdehyde Z prepared by acid-catalyzed ring-opening of commercially available 2,5-dimethoxytetrahydrofuran Y (Fakstorp, J.; Raleigh, D.; Schniepp, L. E. J. Am. Chem. Soc., 1950, 72, 869, House, H. O.; Cronin, T. H. J. Org. Chem., 1965, 30, 1061) at 0 to 5° C. occurs smoothly to give the bis(THP-protected) tetraol XC in high yield (92% after flash column chromatography purification). Acidic hydrolysis of XC in methanol/aqueous H2SO4 was completed in two hours to afford tetraol XI). The product is insoluble in dichloromethane and diethyl ether and could be purified by washing with one of these solvents.

Row | SMILES | melting point [°C] | % wt. gain ([1]; 100 mg/kg/day oral gavage) [%] | Glucose, Percent of Pre-treatment ([1]; blood glucose after 6 hour fast, 100 mg/kg/day oral) [%] | BHA, Percent of Pre-treatment ([1]; serum beta-hydroxy butyric acid, 100 mg/kg/day oral) [%] | NEFA, Percent of Pre-treatment ([1]; serum non-esterified fatty acids, 100 mg/kg/day oral) [%] | HDL-C/non-HDL-C ([1]; serum ratio, 100 mg/kg/day oral) | TC, Percent of Pre-treatment ([1]; serum total cholesterol, 100 mg/kg/day oral) [%] | TG, Percent of Pre-treatment ([1]; serum triglycerides, 100 mg/kg/day oral) [%] | HDL-C, Percent of Pre-treatment ([1]; serum, 100 mg/kg/day oral) [%] | Insulin, Percent of Pre-treatment ([1]; serum, 100 mg/kg/day oral) [%] | Non-HDL-C, Percent of Pre-treatment ([1]; serum, 100 mg/kg/day oral) [%] | IC50 [2] [µM] | Solubility in water [3]
1 | CC(C)(CO)CCCC(O)CCCC(O)CCCC(C)(C)CO (centres unmarked) [Compound 6.2.2, 2,2,14,14-Tetramethylpentadecane-1,6,10,15-tetraol] | 85 to 86 |  |  |  |  |  |  |  |  |  |  |  | 
2 | CC(C)(CO)CCCC(O)CCC(O)CCCC(C)(C)CO (centres unmarked) [Compound A] |  | 13 | 11 | 73 | 143 | 1 | 4 | 43 | −19 | 70 | 30 | 1.1 | 
3 | CC(C)(CO)CCCC(O)CCC(O)CCCC(C)(C)CO (centres unmarked) [XI), 2,2,13,13-Tetramethyltetradecan-1,6,9,14-tetraol] | 96 to 97 |  |  |  |  |  |  |  |  |  |  |  | practically insoluble
